The target in one experiment is CB2 (Homo sapiens, UniProt P34972). Nature of the experiment: cyclic adenosine monophosphate (cAMP) assay at CB2. Format: cell-based. The procedure:
(§1) Functional characterization of some of the disclosed compounds was performed by using the cyclic adenosine monophosphate (cAMP) assay. The functional potency of the compound is represented by the EC50 value. The lower the EC50 value, the higher the functional potency. A detailed description of the cyclic adenosine monophosphate (cAMP) assay is given in Nikas et al. J. Med. Chem. (2010) 6996.

Another experiment deals with C57BL/6 J mice. Nature of the experiment: Hypothermia assay (rectal temperature). Format: in vivo. To be noted: dose of 3 mg/kg, FIG. 2. The procedure:
(§2) Some of the disclosed compounds were tested in vivo using two well defined rodent assays for cannabinergic activity, the analgesia and the hypothermia assays. The analgesia assay (tail immersion test) determines the ability of the test compound to activate cannabinergic signaling, through modulation of cannabinoid receptors, and thereby reduce nociceptive pain. The hypothermia test determines the ability of a test compound to act as a central CB1 agonist and decrease the body temperature. […] The details of both assays are described below.
C57BL/6 J mice (Charles River Breeding Laboratories, Wilmington, Mass., USA) weighing 30 to 35 g were group housed five to a cage, in a temperature-controlled (20° C.) animal facility. Mice were habituated to the animal facility for at least 1 week prior to experiments with a 12-h light/dark cycle (lights are on at 7:00 AM). Mice were given free access to food and water. Experimentally naïve mice were used for each dose condition, and the mice were tested during the light phase.
Rectal temperature was measured in mice using a rectal probe of a digital laboratory thermometer, RET-3-ISO, type T thermocouple (Physitemp Instruments Inc, Clifton, N.J.). The lubricated probe was inserted approximately 2.0 cm into the rectum for approximately 30 sec, prior to each recording. […]

In experiment [1] the target is T1, CB1 (Rattus norvegicus, UniProt P20272). Nature of the experiment: cyclic adenosine monophosphate (cAMP) assay at CB1. Format: cell-based. The protocol:
as §1

The next experiment deals with CB2 receptor (UniProt P47936). Nature of the experiment: CB2 receptor binding affinity (Ki). As to conditions: read-out: CB2 receptor Ki. The procedure:
Some disclosed compounds were tested for CB1 and CB2 receptor binding affinity (Tables 1, 2, 3, 4, 5, 6). As used herein “binding affinity” is represented by the Ki value. The Ki value is the affinity constant and describes the affinity of the compound for the receptor. The lower the Ki value, the higher the affinity of the compound for the receptor. A detailed description of the methods used to test “binding affinity” of compounds is given in Makriyannis, et al., US 2007, 0135388 and in Papahatjis, et al. J. Med. Chem. (2007) 4048, the content of each of which is hereby incorporated by reference.

Experiment [2] concerns the target T1, CB1. Nature of the experiment: CB1 receptor binding affinity (Ki). The procedure: Some disclosed compounds were tested for CB1 and CB2 receptor binding affinity (Tables 1, 2, 3, 4, 5, 6). As used herein “binding affinity” is represented by the Ki value. The Ki value is the affinity constant and describes the affinity of the compound for the receptor. […] A detailed description of the methods used to test “binding affinity” of compounds is given in Makriyannis, et al., US 2007, 0135388 and in Papahatjis, et al. J. Med. Chem. (2007) 4048, the content of each of which is hereby incorporated by reference.

The next experiment has as its system C57BL6/J mice. Nature of the experiment: Analgesia assay (tail immersion / tail withdrawal test). Format: in vivo. The procedure:
as §2
C57BL6/J mice (Jackson Laboratories, Bar Harbor Me.) were single housed at least 1 h before start of experiment. Food and water are removed immediately before the first injection.
Route of administration=i.p. Volume=1 mL/100 g body weight.
Tail withdrawal test: 52° C. water bath (use bags). • a. Bag is made of stapled surgery sheets to form a small pocket the size of a mouse. • b. […] The tip of the mouse's tail is dipped into the warm water, with 1 cm submerged. • d. […] B. Hypothermia Assay

The mark [3] stands for this setting: read-out: Functional Potency (EC50).

pEC50, pKi: −log10 of the molar value.

The record followed here is patent US9517989B2, “2-cycloalkyl resorcinol cannabinergic ligands” (priority 2012, dated 2016).

Sequence of CB2 (P34972 whole entry, species assumed): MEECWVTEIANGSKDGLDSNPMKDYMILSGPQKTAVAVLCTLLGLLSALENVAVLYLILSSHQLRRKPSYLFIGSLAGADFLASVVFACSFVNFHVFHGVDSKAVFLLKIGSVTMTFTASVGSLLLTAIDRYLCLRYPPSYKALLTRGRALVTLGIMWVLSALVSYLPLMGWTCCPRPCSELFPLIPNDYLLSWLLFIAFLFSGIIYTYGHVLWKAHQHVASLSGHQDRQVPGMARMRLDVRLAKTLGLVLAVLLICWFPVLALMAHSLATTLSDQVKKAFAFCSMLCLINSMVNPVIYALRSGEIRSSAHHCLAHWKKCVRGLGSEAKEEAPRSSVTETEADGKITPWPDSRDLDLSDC
T1 sequence (P20272 whole entry): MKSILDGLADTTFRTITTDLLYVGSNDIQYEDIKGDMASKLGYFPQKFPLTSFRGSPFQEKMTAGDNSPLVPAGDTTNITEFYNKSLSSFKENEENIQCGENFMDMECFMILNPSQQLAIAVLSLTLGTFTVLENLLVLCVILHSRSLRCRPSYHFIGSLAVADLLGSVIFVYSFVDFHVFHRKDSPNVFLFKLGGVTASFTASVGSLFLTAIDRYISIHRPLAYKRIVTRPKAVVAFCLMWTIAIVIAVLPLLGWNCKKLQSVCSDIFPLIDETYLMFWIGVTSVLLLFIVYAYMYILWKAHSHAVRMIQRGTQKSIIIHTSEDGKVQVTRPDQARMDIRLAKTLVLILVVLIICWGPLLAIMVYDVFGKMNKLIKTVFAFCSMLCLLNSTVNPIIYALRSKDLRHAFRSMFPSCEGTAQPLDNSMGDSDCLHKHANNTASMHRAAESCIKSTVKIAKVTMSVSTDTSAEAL

On to `C=C(C)[C@H]1CCC(CO)=C[C@@H]1c1c(O)cc(C(C)(C)CCCCN2CCOCC2)cc1O` [Compound 71, 2-[(1S,6S)-3-(Hydroxymethyl)-6-(1-methylethenyl)-2-cyclohexen-1-yl]-5-(6-morpholino-2-methylhexane-2-yl)resorcinol], for which the “Functional Activity” value at CB2 is recorded as “Partial agonist at CB2”; at CB1 [1] it was “Agonist at CB1”. For the same compound, the Emax stood at 42% at CB2 (read-out: % Efficacy) and 88% on CB1 [1] (read-out: % Efficacy). Further, the pEC50 at CB2 (setting [3]) was 9.40; at CB1 [1] (setting [3]), 8.85. Besides, in the experiment with C57BL/6 J mice, the centrally mediated hypothermia result is recorded as “does not show significant hypothermia”. For the same compound, the pKi at CB2 receptor was 8.52; on CB1 [2], 8.22.

With `CC1=C[C@H](c2c(O)cc(C3(CCCCCC#N)CCCC3)cc2O)[C@@H]2C[C@H]1C2(C)C` [Compound 41, (+)-2-[(1R,4S,5S)-2,6,6-trimethylbicylco[3.1.1]hept-2-en-4-yl]-5-[(5-cyanopentyl)cyclopentyl]resorcinol], the “antinociception (analgesia)” value with C57BL6/J mice (dose of 3 mg/Kg, FIG. 1) was “maximum possible effect”. For the same compound, the figures for the pKi on CB2 receptor and on CB1 [2] were 9.10 and 8.59, respectively.

In the case of “(−)-Δ^9-tetrahydrocannabinol [(−)-Δ^9-THC, reference compound]”, in the experiment on C57BL6/J mice (same test as compound 41), the “potency in the analgesia assay relative to compound 41 (times less potent)” value is “approximately 10 times”.
